Laboratory results: US20200199537A1, “LIVER ORGANOID COMPOSITIONS AND METHODS OF MAKING AND USING SAME” (Children's Hospital Medical Center, priority 2017, published 2020)
Read-outs that look alike come from different tables or passages of the source.

Assays:
human liver organoids [1] = details: for cell viability: human, 50 μM
[2] = test system: bile transport activity (efflux of fluorescein diacetate) in human liver organoids
Method: To quantify the inhibitory potential for FD excretion, Applicant developed a simple but robust quantification method by determining the fluorescent intensity ratio between outside and inside the organoid by image J (FIG. 4, panel B).
Fluorescein diacetate was used for evaluating bile transport activity in organoids. Around Day 25, the organoids were rinsed with PBS, and, fluorescein diacetate was treated to organoids in medium. […] After treatment or injection of fluorescein diacetate, images were captured on fluorescent microscopy BZ-X710 (Keyence). […] Changes in brightness or contrast during processing were applied equally across the entire image.

[3] = test system: lipotoxic human liver organoids; experiment: Evaluation of viability in organoids on vulnerable (lipotoxic, oleic acid) condition; assay type: cell-based
Method: Next, 50 μM of Troglitazone was treated with or without 50 μM NAC for 24 h. […] Images were captured sequentially using fluorescent microscopy BZ-9000.

MRP2 = MRP2 (Homo sapiens, UniProt Q92887); details: previously reported; cited from earlier work
MRP2, sequence (Q92887 whole entry): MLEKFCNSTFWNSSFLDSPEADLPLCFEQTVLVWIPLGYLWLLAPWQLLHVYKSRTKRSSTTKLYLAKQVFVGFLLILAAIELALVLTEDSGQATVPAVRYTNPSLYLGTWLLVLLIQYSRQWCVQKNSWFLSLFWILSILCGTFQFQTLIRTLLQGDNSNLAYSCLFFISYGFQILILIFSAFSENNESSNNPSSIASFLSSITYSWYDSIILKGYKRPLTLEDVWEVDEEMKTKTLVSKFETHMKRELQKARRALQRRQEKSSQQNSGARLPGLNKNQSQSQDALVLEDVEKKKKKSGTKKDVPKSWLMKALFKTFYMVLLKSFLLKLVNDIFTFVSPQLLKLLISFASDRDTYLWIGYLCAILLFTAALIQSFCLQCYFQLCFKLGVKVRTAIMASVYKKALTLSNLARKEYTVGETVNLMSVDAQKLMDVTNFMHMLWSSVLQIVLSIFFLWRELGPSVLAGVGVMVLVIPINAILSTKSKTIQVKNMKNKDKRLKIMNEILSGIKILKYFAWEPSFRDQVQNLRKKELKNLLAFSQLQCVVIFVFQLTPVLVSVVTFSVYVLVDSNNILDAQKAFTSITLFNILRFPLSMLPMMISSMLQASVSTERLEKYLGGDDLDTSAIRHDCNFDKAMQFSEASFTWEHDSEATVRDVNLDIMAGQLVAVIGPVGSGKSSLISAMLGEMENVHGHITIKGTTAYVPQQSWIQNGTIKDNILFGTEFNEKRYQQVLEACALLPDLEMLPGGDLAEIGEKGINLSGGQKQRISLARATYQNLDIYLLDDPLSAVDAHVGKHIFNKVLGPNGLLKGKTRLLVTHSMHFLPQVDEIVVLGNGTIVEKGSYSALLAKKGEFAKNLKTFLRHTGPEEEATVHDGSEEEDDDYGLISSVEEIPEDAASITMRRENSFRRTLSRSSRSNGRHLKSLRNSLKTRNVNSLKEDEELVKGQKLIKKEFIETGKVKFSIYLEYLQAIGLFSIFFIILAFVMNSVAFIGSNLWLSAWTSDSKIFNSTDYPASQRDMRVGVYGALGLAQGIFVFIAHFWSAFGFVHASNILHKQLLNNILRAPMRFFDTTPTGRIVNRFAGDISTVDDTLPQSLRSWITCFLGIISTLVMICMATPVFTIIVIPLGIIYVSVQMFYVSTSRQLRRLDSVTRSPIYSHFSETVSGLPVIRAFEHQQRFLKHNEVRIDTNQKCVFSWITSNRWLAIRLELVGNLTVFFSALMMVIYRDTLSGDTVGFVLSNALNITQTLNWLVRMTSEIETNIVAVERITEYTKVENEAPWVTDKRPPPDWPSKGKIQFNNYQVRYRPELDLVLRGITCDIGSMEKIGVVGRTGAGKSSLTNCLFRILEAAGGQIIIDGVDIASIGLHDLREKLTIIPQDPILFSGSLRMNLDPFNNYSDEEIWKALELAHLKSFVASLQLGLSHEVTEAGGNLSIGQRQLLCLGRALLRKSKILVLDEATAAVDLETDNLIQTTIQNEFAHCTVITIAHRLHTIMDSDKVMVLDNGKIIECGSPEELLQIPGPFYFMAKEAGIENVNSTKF

[4] = test system: CLF excretion into iPSC-liver organoids; details: human
From the text: To test the clinical relevance of organoid based cholestatic phenotyping method, Applicant employed pharmacogenomics insights into Applicant's system to address the fidelity question.

human liver organoids [5] = experiment: Lipid accumulation in organoids after oleic acid treatment; assay type: cell-based; details: 3 days after treatment, 800 μM
Method: Images were captured sequentially using fluorescent microscopy BZ-9000. […] The following regents or kits were used: BODIPY® 493/503 for lipids (Thermo Fisher Scientific), and SiR Actin Kit for cytoskeleton (USA Scientific, FL, USA), CellROX® Green Reagent for ROS (Fisher Scientific), TMRM (Thermo Fisher Scientific) for mitochondria. […] ROS production, mitochondria size and number were analyzed by IMARIS8.

**Q.** For `CCc1nn(CCCN2CCN(c3cccc(Cl)c3)CC2)c(=O)n1CCOc1ccccc1` [Nefazodone], which “cell viability relative to TOL, DICLO and BOS” value (human liver organoids [1]) is on record?
**A.** Its value is “significantly lowered”.

**Q.** What about the “efflux of FD” value [2] of the same compound?
**A.** Its value is “significantly decreased”.

**Q.** Which “vulnerability of steatotic organoids to drug toxicity” value [3] does the source give for `CN(CCOc1ccc(CC2SC(=O)NC2=O)cc1)c1ccccn1` (centres unmarked) [Rosiglitazone] here?
**A.** The value was “vulnerable”.

**Q.** Which “export by efflux transporter MRP2” value (MRP2) does the source give for `COc1ccccc1Oc1c(NS(=O)(=O)c2ccc(C(C)(C)C)cc2)nc(-c2ncccn2)nc1OCCO` [Bosentan] here?
**A.** Its value is “mediates export”.

**Q.** And the “specificity of drug induced cholestasis to CYP2C9*2 iPSC lines” value [4]?
**A.** Its value is “specific to CYP2C9 poor metabolizer donor-derived HLO”.

**Q.** What about the “efflux of FD” value [2] of the same compound?
**A.** Its value is “significantly decreased”.

**Q.** For `CCCCCCCC/C=C\CCCCCCCC(=O)O` [oleic acid], which “lipid accumulation in organoids” value (human liver organoids [5]) is on record?
**A.** The value was “intense”.

**Q.** Which results are given for `Cc1c(C)c2c(c(C)c1O)CCC(C)(COc1ccc(CC3SC(=O)NC3=O)cc1)O2` (centres unmarked) [Troglitazone]?
**A.** cell viability relative to TOL, DICLO and BOS (human liver organoids [1]): significantly lowered; cell viability (human liver organoids [1]; 24 h): 85%; cell viability (human liver organoids [1]; 72 h): 67%; cell viability compared to control ([3]; lipotoxic condition (800 μM oleic acid 3 days), 50 μM drug, 24 h): −40%; organoid morphology after treatment ([3]; lipotoxic condition, 24 h): massive fragmentation of organoids; efflux of FD [2]: significantly decreased

**Q.** Which “cell viability (rescue from Troglitazone toxicity)” value ([3]; lipotoxic condition, 50 μM Troglitazone with 50 μM NAC, 24 h) does the source give for `CC(=O)N[C@@H](CS)C(=O)O` [NAC, N-acetylcysteine] here?
**A.** Its value is “significantly improved”.
